The target in assay [1] is T1, Nitric oxide synthase, inducible (Mus musculus, UniProt P29477).
T1 sequence (P29477 whole entry): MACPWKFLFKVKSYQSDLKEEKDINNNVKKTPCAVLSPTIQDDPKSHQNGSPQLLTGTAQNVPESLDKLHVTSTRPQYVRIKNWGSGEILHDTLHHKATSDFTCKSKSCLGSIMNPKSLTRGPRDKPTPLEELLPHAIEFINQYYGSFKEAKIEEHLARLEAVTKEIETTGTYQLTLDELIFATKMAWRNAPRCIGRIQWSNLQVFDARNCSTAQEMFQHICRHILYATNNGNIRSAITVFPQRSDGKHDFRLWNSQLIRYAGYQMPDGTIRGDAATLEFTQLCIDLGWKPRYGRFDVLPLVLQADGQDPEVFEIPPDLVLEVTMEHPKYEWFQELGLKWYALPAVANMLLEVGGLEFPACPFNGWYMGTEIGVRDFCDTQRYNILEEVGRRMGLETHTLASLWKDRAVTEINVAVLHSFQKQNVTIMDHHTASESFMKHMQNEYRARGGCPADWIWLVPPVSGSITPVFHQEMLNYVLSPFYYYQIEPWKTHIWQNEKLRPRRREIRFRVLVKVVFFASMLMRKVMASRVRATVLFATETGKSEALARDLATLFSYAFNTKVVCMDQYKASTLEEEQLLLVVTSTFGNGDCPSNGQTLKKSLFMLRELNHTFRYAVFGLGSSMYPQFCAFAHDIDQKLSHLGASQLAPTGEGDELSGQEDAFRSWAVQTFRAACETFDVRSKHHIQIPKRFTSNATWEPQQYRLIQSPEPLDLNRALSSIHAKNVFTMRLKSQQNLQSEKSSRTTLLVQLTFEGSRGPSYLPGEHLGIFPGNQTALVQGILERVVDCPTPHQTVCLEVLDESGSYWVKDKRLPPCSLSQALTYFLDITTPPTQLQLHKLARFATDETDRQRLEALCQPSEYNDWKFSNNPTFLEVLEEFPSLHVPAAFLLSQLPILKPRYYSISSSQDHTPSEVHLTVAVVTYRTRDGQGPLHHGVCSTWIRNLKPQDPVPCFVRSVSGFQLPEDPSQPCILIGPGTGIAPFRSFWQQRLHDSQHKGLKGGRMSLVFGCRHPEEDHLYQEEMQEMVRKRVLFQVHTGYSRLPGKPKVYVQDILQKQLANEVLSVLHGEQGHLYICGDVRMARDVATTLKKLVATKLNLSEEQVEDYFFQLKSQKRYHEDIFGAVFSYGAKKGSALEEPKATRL
Briefly: Inhibition of mouse iNOS expressed in Escherichia coli assessed as inhibition of nitric oxide formation by hemoglobin capture assay.

Assay [2] concerns the target Nitric oxide synthase 1 (Rattus norvegicus, UniProt P29476). Briefly: Inhibition of rat nNOS expressed in Escherichia coli assessed as inhibition of nitric oxide formation by hemoglobin capture assay.
A further assay concerns the target T2, Nitric oxide synthase 3 (Bos taurus, UniProt P29473).
T2 sequence (P29473 whole entry): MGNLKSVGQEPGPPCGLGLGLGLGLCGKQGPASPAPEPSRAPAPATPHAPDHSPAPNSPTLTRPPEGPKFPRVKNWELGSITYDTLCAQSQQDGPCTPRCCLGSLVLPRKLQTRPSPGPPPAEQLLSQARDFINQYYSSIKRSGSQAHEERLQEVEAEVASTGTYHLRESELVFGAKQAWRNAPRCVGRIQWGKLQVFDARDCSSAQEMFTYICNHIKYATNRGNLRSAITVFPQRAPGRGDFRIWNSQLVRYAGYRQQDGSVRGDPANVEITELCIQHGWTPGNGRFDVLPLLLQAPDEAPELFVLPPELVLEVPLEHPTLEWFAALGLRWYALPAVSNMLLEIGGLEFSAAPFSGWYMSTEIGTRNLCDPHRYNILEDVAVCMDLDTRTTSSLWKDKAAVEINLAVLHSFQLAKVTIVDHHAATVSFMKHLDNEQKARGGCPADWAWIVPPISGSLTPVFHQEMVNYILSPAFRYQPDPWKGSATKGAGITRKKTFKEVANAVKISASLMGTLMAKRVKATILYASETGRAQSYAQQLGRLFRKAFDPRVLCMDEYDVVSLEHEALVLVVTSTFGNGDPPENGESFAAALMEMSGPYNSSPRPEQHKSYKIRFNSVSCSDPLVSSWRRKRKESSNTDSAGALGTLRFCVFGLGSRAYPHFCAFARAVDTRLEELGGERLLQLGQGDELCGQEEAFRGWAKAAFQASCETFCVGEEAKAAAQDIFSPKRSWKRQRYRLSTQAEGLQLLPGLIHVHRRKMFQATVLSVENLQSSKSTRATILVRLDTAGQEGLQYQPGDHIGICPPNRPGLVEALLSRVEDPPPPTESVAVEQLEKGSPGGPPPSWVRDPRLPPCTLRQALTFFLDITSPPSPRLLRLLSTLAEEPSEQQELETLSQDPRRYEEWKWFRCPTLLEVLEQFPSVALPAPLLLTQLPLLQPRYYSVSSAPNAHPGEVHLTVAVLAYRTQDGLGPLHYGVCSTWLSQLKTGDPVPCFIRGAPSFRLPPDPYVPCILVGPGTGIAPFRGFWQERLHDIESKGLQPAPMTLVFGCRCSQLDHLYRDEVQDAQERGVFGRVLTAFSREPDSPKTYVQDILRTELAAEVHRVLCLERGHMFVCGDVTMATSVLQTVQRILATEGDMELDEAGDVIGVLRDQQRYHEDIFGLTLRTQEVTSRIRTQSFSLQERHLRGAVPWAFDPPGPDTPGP

Assay [3] deals with Nitric oxide synthase 1 (Homo sapiens, UniProt P29475). Briefly: Inhibition of human nNOS expressed in Escherichia coli assessed as inhibition of nitric oxide formation by hemoglobin capture assay.
Chain of Nitric oxide synthase 1 (Homo sapiens, UniProt P29475) (P29475 whole entry): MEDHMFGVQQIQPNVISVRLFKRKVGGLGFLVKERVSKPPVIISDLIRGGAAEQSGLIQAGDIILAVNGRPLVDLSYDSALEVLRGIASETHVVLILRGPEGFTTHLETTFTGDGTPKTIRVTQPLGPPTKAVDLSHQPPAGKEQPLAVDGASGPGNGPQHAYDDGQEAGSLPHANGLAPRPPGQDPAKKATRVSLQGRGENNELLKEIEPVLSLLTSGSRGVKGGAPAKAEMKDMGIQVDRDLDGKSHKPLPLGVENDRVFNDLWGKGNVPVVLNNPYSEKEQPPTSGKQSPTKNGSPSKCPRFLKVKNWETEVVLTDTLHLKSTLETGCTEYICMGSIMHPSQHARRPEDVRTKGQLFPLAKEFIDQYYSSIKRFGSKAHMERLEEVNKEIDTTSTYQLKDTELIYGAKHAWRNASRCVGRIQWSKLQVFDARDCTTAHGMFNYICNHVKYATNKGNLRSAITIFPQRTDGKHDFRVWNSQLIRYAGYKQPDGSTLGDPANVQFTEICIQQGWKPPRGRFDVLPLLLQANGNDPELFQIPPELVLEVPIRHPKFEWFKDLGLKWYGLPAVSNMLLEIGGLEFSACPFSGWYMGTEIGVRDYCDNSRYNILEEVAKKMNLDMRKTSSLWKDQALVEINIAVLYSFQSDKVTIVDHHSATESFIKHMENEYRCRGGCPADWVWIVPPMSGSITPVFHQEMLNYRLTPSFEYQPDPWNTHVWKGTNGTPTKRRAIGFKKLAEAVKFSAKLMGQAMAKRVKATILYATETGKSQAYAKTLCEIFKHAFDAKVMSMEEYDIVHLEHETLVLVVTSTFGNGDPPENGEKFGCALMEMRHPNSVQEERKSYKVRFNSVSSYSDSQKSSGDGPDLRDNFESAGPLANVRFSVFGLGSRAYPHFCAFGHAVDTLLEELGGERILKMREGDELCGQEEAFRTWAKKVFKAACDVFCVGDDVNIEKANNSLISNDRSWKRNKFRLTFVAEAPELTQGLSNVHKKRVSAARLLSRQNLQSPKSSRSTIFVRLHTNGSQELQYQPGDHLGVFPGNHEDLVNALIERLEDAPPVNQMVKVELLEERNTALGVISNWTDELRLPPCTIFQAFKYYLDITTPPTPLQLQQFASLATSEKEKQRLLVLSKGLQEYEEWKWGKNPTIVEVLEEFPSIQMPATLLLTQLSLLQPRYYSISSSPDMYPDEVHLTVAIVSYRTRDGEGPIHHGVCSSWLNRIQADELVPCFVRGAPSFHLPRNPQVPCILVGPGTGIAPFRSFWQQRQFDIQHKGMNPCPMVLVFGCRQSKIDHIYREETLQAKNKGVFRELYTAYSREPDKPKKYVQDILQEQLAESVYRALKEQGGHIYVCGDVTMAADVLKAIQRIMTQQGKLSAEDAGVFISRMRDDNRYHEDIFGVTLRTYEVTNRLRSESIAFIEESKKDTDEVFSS

Chain of Nitric oxide synthase 1 (Rattus norvegicus, UniProt P29476) (P29476 whole entry): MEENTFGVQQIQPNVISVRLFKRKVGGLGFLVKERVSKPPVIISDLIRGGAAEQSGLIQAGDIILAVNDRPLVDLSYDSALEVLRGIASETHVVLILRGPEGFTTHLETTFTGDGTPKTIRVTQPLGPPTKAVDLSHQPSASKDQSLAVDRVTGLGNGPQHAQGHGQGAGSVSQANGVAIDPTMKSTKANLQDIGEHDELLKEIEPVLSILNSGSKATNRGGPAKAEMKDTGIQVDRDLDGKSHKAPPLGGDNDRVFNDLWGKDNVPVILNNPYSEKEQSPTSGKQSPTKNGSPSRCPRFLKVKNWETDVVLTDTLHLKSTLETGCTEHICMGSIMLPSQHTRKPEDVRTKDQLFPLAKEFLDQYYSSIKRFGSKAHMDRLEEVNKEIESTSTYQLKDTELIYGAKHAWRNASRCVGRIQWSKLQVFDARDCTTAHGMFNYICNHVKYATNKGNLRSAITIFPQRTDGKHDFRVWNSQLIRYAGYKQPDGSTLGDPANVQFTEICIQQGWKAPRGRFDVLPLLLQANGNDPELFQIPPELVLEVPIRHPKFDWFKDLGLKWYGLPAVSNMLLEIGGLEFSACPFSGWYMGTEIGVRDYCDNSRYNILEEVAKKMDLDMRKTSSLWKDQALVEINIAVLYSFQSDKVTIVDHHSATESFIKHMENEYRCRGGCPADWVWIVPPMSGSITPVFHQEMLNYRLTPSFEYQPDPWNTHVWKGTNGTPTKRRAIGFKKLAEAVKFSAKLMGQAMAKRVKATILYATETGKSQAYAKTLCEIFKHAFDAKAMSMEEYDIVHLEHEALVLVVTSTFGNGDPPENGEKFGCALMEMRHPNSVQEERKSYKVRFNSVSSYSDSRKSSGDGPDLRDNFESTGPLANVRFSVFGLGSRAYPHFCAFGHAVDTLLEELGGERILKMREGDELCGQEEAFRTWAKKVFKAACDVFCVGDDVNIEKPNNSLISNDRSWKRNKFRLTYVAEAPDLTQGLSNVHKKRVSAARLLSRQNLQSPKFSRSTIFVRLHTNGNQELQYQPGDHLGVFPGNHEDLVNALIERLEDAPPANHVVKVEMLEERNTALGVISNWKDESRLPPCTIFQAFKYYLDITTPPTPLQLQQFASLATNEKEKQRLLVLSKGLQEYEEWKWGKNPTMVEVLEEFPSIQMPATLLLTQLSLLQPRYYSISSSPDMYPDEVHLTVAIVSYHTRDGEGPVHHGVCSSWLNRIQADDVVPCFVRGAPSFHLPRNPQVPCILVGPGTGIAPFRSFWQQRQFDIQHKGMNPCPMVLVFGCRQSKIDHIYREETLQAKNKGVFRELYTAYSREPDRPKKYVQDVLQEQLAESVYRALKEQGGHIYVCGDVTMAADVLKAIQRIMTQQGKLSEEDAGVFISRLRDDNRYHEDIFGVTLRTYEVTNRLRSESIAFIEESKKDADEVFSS
Description for Nitric oxide synthase 3: Inhibition of bovine eNOS expressed in Escherichia coli assessed as inhibition of nitric oxide formation by hemoglobin capture assay

As for `Nc1cccc(C[C@@H]2CNC[C@@H]2OCCNCCc2cccc(F)c2)n1`, the Ki in assay [1] was 10 µM; at Nitric oxide synthase 1 [2], 0.05 µM; at Nitric oxide synthase 3, 58 µM; on Nitric oxide synthase 1 [3] it was 0.29 µM.
Regarding `Nc1cccc(C[C@H]2CNC[C@H]2OCCNCCc2cccc(F)c2)n1`, the Ki in assay [1] amounted to 13.2 µM; on Nitric oxide synthase 1 [2], 0.22 µM; on Nitric oxide synthase 3, 59 µM; on Nitric oxide synthase 1 [3] it was 1.8 µM.
For `NC1=NC(C[C@@H]2CNC[C@@H]2OCCNCCc2cccc(F)c2)CCC1` (stereo partly drawn) the same measures were 21.8 µM, 0.11 µM, 58 µM and 0.49 µM.
Take `Cc1cc(N)nc(C[C@@H]2CNC[C@@H]2OCCNCCc2cccc(F)c2)c1`: the Ki on Nitric oxide synthase 1 [3] was found to be 0.05 µM.

The Ki is the dissociation constant of the complex between target and ligand, obtained from inhibition or displacement.
